Structures are written as SMILES.

The data set can be described thus: Dissolution of steroid with alpha-cyclodextrin in aqueous suspension. Type of data set: physicochemical. To be noted: 120 mg alpha-cyclodextrin added to 5 ml aqueous suspension, room temperature, agitated for several minutes. As to the method: 120 mg of alpha-cyclodextrin was added to 5 ml of an aqueous suspension of dexamethasone at room temperature.

Consider `C[C@@H]1C[C@H]2[C@@H]3CCC4=CC(=O)C=C[C@]4(C)[C@@]3(F)[C@@H](O)C[C@]2(C)[C@@]1(O)C(=O)CO` [dexamethasone, 9-Fluoro-11β,17,21-trihydroxy-16α-methylpregna-1,4-diene-3,20-dione], for which the “dissolution of steroid with alpha-cyclodextrin” value is “did not dissolve and remained in suspension”.

For the origin of these results see US4383992A, “Water-soluble steroid compounds” (priority 1982, dated 1983).
